Like-named read-outs stand apart in the source and are kept apart here.
Columns and labels:
Assay type in all cases: cell-based, human
H740 = test: 3H thymidine proliferation assay, H740
Method in brief: (§1)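 EC50 from ^3H-thymidine uptake: 1.0 μCi/well pulse during final 24 h of a 72 h exposure; scintillation count. 1.0×10^4 cells/well, seeded 3 h before 1:3 serial dilutions of unconjugated compound or conjugate.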

UO-31 [1] = test: ATP luminescence proliferation assay, UO-31
Method: (§2) This example generally describes the procedures used to assay the antiproliferative activity of compounds of this invention or their conjugates. Human tumor cell lines were obtained from the American Type Culture Collection (ATCC), P.O. Box 1549, Manassas, Va. 20108, USA, and cultured according to instruction from the ATCC. Cells were seeded at 1.0×10^3 or 1.0×10^4 cells/well in 96-well plates for 3 h for ATP assays or ^3H thymidine assays, respectively. 1:3 serial dilutions of free (unconjugated) compounds or their conjugates were added to the wells. Plates were allowed to incubate for 24 to 72 h. The ^3H thymidine plates were pulsed with 1.0 μCi of ^3H-thymidine per well for the last 24 hours of the total incubation period, harvested, and read on a Top Count Scintillation Counter (Packard Instruments, Meriden, Conn.). ATP levels in the ATP plates were measured using the […]-GLO® Luminescent Cell Viability kit following the manufacturer's manual and read on a GLOMAX® 20/20 luminometer (both from Promega, Madison, Wis., USA). The EC50 values—the concentration at which an agent inhibits or reduces cell proliferation by 50% —were determined using PRISM™ software, version 4.0 (GraphPad Software, La Jolla, Calif., USA).
(§3) Using the ^3H thymidine or the ATP luminescence assay, or both, the activities of compounds of this invention were assayed against the following cancer cell lines: HCT-15 (colorectal cancer, multi-drug resistant (MDR)); Hep3B (liver cancer); LNCaP (prostate cancer, androgen receptor positive (AR^+)); MDA-MB-231 (breast cancer, estrogen receptor, progesterone receptor, and Her2 negative (triple negative)); A2058 (melanoma); U-87 MG (glioblastoma); NCI-H460 (NSCLC); A549 (NSCLC); HPAC (pancreatic cancer, primary); PC3 (prostate cancer, AR); BT474 (breast cancer, Her2 highly positive (Her2hi)); SKOV3 (ovarian cancer, Her2hi); 786-O (renal cancer); UO-31 (renal cancer, MDR); NCI-H740 (SCLC); DMS53 (SCLC); SK-BR3 (breast cancer, Her2hi); ZR-75 (breast cancer, estrogen receptor positive); OVCAR3 (ovarian cancer); HL-60 (APL); OVCAR8/Adr (ovarian cancer, MDR); CEM-Cl (ALL); Nomo-1 (AML); RPMI-8226 (MM)); Raji (lymphoma); SW-480 (colorectal cancer, metastatic); SW-620 (colorectal cancer); and H226 (lung cancer). (Not all compounds were assayed against all cell lines.)
(§4) Table 3 provides the data for the ATP luminescence proliferation assays, with an incubation period of 48, 72, or 96 h, as noted.

RPMI-8226 = test: 3H thymidine proliferation assay, RPMI-8226
Method in brief: as §1

ZR-75 = test: 3H thymidine proliferation assay, ZR-75
Method in brief: as §1

PC3 = test: ATP luminescence proliferation assay, PC3
Method: as §2, §3, §4

U-87 MG = test: ATP luminescence proliferation assay, U-87 MG
Method: as §2, §3, §4

Raji [2] = test: ATP luminescence proliferation assay, Raji
Method: as §2, §3, §4

DMS53 [3] = test: ATP luminescence proliferation assay, DMS53
Method: as §2, §3, §4

CEM-C1 = test: 3H thymidine proliferation assay, CEM-C1
Method in brief: as §1

Hep3B = test: ATP luminescence proliferation assay, Hep3B
Method: as §2, §3, §4

HCT-15 = test: 3H thymidine proliferation assay, HCT-15
Method in brief: as §1

Nomo-1 = test: 3H thymidine proliferation assay, Nomo-1
Method in brief: as §1

OVCAR3 [4] = test: 3H thymidine proliferation assay, OVCAR3
Method in brief: as §1

OVCAR3 [5] = test: ATP luminescence proliferation assay, OVCAR3
Method in brief: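 Cells were seeded at 1.0×10^3 cells/well for 3 h, then given 1:3 serial dilutions of free compound or conjugate and incubated 48, 72 or 96 h. Cellular ATP was read by luminescent viability kit, and EC50 was the concentration reducing proliferation by 50%.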

Raji [6] = test: 3H thymidine proliferation assay, Raji
Method in brief: as §1

A2058 [7] = test: 3H thymidine proliferation assay, A2058; details: 3H thymidine method, 72 h incubation
Method in brief: as §1

SK-BR3 = test: ATP luminescence proliferation assay, SK-BR3
Method: as §2, §3, §4

DMS53 [8] = test: 3H thymidine proliferation assay, DMS53
Method in brief: as §1

UO-31 [9] = test: 3H thymidine proliferation assay, UO-31
Method in brief: as §1

A2058 [10] = test: ATP luminescence proliferation assay, A2058
Method: as §2, §3, §4

CC[C@H](C)[C@H](NC(=O)[C@H]1CCCCN1C)C(=O)N(C)[C@H](C[C@@H](OC)c1nc(C(=O)N[C@@H](Cc2ccccc2)C(=O)N[C@@H](C)C(=O)OC)cs1)C(C)C [Compound 24]
EC50 (H740; Homo sapiens, read-out: EC50, H740, 3H thymidine method, 72 h incubation): 51 nM | EC50 (UO-31 [1]; Homo sapiens, UO-31, 48 h, read-out: EC50 UO-31 (48 h), ATP luminescence, UO-31, 48 h incubation): 13 nM | EC50 (RPMI-8226; Homo sapiens, RPMI-8226, read-out: EC50, RPMI-8226, 3H thymidine method, 72 h incubation): 17 nM | EC50 (ZR-75; Homo sapiens, ZR75, read-out: EC50, ZR-75, 3H thymidine method, 72 h incubation): 3.6 nM | EC50 (PC3; Homo sapiens, PC-3, 48 h, read-out: EC50 PC3 (48 h), ATP luminescence, PC3, 48 h incubation): 13 nM | EC50 (U-87 MG; Homo sapiens, 72 h, read-out: EC50 U-87 MG (72 h), ATP luminescence, U-87 MG, 72 h incubation): 18 nM | EC50 (Raji [2]; Homo sapiens, 72 h, read-out: EC50 Raji (72 h), ATP luminescence, Raji, 72 h incubation): 7.9 nM | EC50 (DMS53 [3]; Homo sapiens, DMS-53, 72 h, read-out: EC50 DMS53 (72 h), ATP luminescence, DMS53, 72 h incubation): > 100 nM | EC50 (CEM-C1; Homo sapiens, CEM/C1, read-out: EC50, CEM-C1, 3H thymidine method, 72 h incubation): 13 nM | EC50 (Hep3B; Homo sapiens, 48 h, read-out: EC50 Hep3B (48 h), ATP luminescence, Hep3B, 48 h incubation): 10 nM | EC50 (HCT-15; Homo sapiens, HCT-15, read-out: EC50, HCT-15, 3H thymidine method, 72 h incubation): 704 nM | EC50 (Nomo-1; Homo sapiens, NOMO-1, read-out: EC50, Nomo-1, 3H thymidine method, 72 h incubation): 1.1 nM | EC50 (OVCAR3 [4]; Homo sapiens, OVCAR-3, read-out: EC50, OVCAR3, 3H thymidine method, 72 h incubation): 90 nM | EC50 (OVCAR3 [5]; Homo sapiens, OVCAR-3, 48 h, read-out: EC50 OVCAR3 (48 h), ATP luminescence, OVCAR3, 48 h incubation): 29 nM | EC50 (Raji [6]; Homo sapiens, Raji, read-out: EC50, Raji, 3H thymidine method, 72 h incubation): 11 nM | EC50 (A2058 [7]; Homo sapiens, A2058): 0.12 nM | EC50 (SK-BR3; Homo sapiens, SK-BR-3, 48 h, read-out: EC50 SK-BR3 (48 h), ATP luminescence, SK-BR3, 48 h incubation): 8.9 nM | EC50 (DMS53 [8]; Homo sapiens, DMS-53, read-out: EC50, DMS53, 3H thymidine method, 72 h incubation): > 100 nM | EC50 (UO-31 [9]; Homo sapiens, UO-31, read-out: EC50, UO-31, 3H thymidine method, 72 h incubation): > 100 nM | EC50 (A2058 [10]; Homo sapiens, A2058, 72 h, read-out: EC50 A2058 (72 h), ATP luminescence, A2058, 72 h incubation): 14 nM

CCC[C@H](NC(=O)[C@H](Cc1ccccc1)NC(=O)c1csc([C@@H](C[C@H](C(C)C)N(C)C(=O)[C@@H](NC(=O)[C@H]2CCCCN2C)[C@@H](C)CC)OC)n1)C(=O)OC [Compound 19]
EC50 (H740; 3H thymidine method, 72 h incubation, read-out: EC50, H740): 3.8 nM | EC50 (UO-31 [1]; ATP luminescence, UO-31, 48 h incubation, read-out: EC50 UO-31 (48 h)): > 100 nM | EC50 (RPMI-8226; 3H thymidine method, 72 h incubation, read-out: EC50, RPMI-8226): 23 nM | EC50 (ZR-75; 3H thymidine method, 72 h incubation, read-out: EC50, ZR-75): 34 nM | EC50 (PC3; ATP luminescence, PC3, 48 h incubation, read-out: EC50 PC3 (48 h)): ~33 nM | EC50 (U-87 MG; ATP luminescence, 72 h incubation, read-out: EC50 U-87 MG (72 h)): > 100 nM | EC50 (Raji [2]; ATP luminescence, 72 h incubation, read-out: EC50 Raji (72 h)): 9.2 nM | EC50 (DMS53 [3]; ATP luminescence, DMS53, 72 h incubation, read-out: EC50 DMS53 (72 h)): 87 nM | EC50 (CEM-C1; 3H thymidine method, 72 h incubation, read-out: EC50, CEM-C1): 22 nM | EC50 (Hep3B; ATP luminescence, 48 h incubation, read-out: EC50 Hep3B (48 h)): 18 nM | EC50 (HCT-15; 3H thymidine method, 72 h incubation, read-out: EC50, HCT-15): 1070 nM | EC50 (Nomo-1; 3H thymidine method, 72 h incubation, read-out: EC50, Nomo-1): 1.3 nM | EC50 (OVCAR3 [4]; 3H thymidine method, 72 h incubation, read-out: EC50, OVCAR3): 53 nM | EC50 (OVCAR3 [5]; ATP luminescence, OVCAR3, 48 h incubation, read-out: EC50 OVCAR3 (48 h)): 25 nM | EC50 (Raji [6]; 3H thymidine method, 72 h incubation, read-out: EC50, Raji): 32 nM | EC50 (A2058 [7]): 0.13 nM | EC50 (SK-BR3; ATP luminescence, SK-BR3, 48 h incubation, read-out: EC50 SK-BR3 (48 h)): 3.9 nM | EC50 (DMS53 [8]; 3H thymidine method, 72 h incubation, read-out: EC50, DMS53): > 100 nM | EC50 (UO-31 [9]; 3H thymidine method, 72 h incubation, read-out: EC50, UO-31): > 100 nM | EC50 (A2058 [10]; ATP luminescence, A2058, 72 h incubation, read-out: EC50 A2058 (72 h)): 26 nM
